“And” between values parts separate entries of the source, which are not always exact repeats. Equal values may be shown once.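 Briefly, cells in 96-well plates were exposed to five compound concentrations for 48 h, and endpoints were estimated by linear interpolation. GI50 is the concentration that inhibits growth by half. TGI: total growth inhibition.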
Legend:
Test in all cases: NCI anticancer screen, dose series, 48 h
A498 renal = system: A498 renal
UO-31 renal = system: UO-31 renal
NCI-H522 lung = system: NCI-H522 lung
SK-OV-3 ovarian = system: SK-OV-3 ovarian
OVCAR-3 ovarian = system: OVCAR-3 ovarian
MDA-MB-231 breast = system: MDA-MB-231 breast
T-47D breast = system: T-47D breast
HOP-62 NSCLC = system: HOP-62 NSCLC
DLD-1 colon = system: DLD-1 colon
LXFL 529 NSCLC = system: LXFL 529 NSCLC

SMILES | GI50 (A498 renal) | TGI (A498 renal) [µM] | GI50 (UO-31 renal) | TGI (UO-31 renal) | GI50 (NCI-H522 lung) | TGI (NCI-H522 lung) | GI50 (SK-OV-3 ovarian) | TGI (SK-OV-3 ovarian) [µM] | GI50 (OVCAR-3 ovarian) [µM] | TGI (OVCAR-3 ovarian) [µM] | GI50 (MDA-MB-231 breast) | TGI (MDA-MB-231 breast) | GI50 (T-47D breast) | TGI (T-47D breast) | GI50 (HOP-62 NSCLC) | TGI (HOP-62 NSCLC) | TGI (DLD-1 colon) [µM] | TGI (LXFL 529 NSCLC) [µM]
O=C(Nc1cccc(-n2cc(-c3ccncc3)c(-c3cc(O)cc(Cl)c3)n2)c1)c1cc(C(F)(F)F)cc(C(F)(F)F)c1 | 4.75 µM | 90.8 | 2.5 µM | > 100 µM | 1.6 µM | 8.37 µM | 10.8 µM | > 100 | 3.28 | 25.7 | 1.42 µM | 3.32 µM | 2.99 µM | 94.5 µM | 9.82 µM | > 100 µM |  | 
O=C(O)Cc1cccnc1 |  | > 100 |  | > 100 µM |  | > 100 µM |  | > 100 |  | > 100 |  | > 100 µM |  | > 100 µM |  | > 100 µM |  | 
COC(=O)CCCCC(=O)c1c(C)[nH]c(/C=C2\N=C(c3ccc[nH]3)C=C2OC)c1C | 2.49 µM | 6.39 | 0.334 µM | 1.24 µM | 0.673 µM | 2.19 µM | 2.25 µM | 4.4 | 0.88 | 2.24 | 0.269 µM | 1.65 µM | 0.723 µM | 2.36 µM | 0.475 µM | 1.87 µM |  | 
Cc1cccc2c3c(sc12)C(c1ccc(Cl)cc1)C(C#N)=C(N)O3 (centres undefined) | 0.211 µM | 1.2 | 0.664 µM | 16.2 µM | 0.314 µM | 4.95 µM | 3.59 µM | 27.2 | 0.384 | 3.16 | 0.679 µM | 7.74 µM | 0.411 µM | 25.3 µM | 0.515 µM | 13.8 µM |  | 
COc1cc2c(cc1OCCCCN1CCN(C(=S)SCCC(C#N)(c3ccccc3)c3ccccc3)CC1)N=C[C@@H]1CCCN1C2=O | 1.19 µM | 2.81 | 0.593 µM | 2.09 µM | 0.196 µM | 0.642 µM | 2.96 µM | 9.81 | 1.2 | 2.93 | 1.53 µM | 4.73 µM | 0.578 µM | > 100 µM | 0.719 µM | 2.4 µM |  | 
COc1cc(/C=C/C(=O)c2cccc(-n3cc(-c4ccc(Cl)cc4)[nH]c3=O)c2)cc(OC)c1OC | 30.2 µM | > 100 | 7.03 µM | 21.3 µM | 4.1 µM | 21.9 µM | 31.4 µM | > 100 | 2.48 | 6.02 | 13.8 µM | 48.6 µM | 6.65 µM | 51.5 µM | 23.6 µM | 57.3 µM |  | 
O=C(CC1(O)C(=O)N(Cc2ccccc2)c2ccccc21)c1ccc(C(=O)NCC2CCC3(CC2)OOC2(CCCCC2)OO3)cc1 (centres undefined) | 2.42 µM | 7.32 | 0.176 µM | 0.338 µM | 0.24 µM | 0.73 µM | 6.57 µM | > 51.1 | 1.21 | 2.74 | 1.15 µM | 2.95 µM | 1.41 µM | 4.04 µM | 0.273 µM | 0.86 µM |  | 
O=C(/C=C/c1cccc(O)c1)c1cccc(-n2cc(-c3ccccc3)[nH]c2=O)c1 | 12.3 µM | 24.9 | 1.99 µM | 7.02 µM | 1.5 µM | 4.3 µM | 12.3 µM | 25 | 2.58 | 6.19 | 3.59 µM | 12.6 µM | 3.14 µM | 12.1 µM | 4.27 µM | > 25.9 µM |  | 
O=C(CC1SC(=Nc2ccccc2Cl)NC1=O)Nc1ccc(Cl)cc1Cl (centres undefined) |  |  |  | > 100 µM |  |  |  |  |  | > 100 |  |  |  |  |  | > 100 µM | > 100 | > 100
O=C(O)/C=C/c1nc2ccccc2c(=O)o1 |  |  |  | > 100 µM |  | > 100 µM |  | > 100 |  | > 100 |  |  |  |  |  |  | > 100 | > 100
O=C1OC(C(O)CO)C(O)=C1O (centres undefined) | 4650 µM and > 10000 µM | > 10000 | 1760 µM and 1380 µM | 3170 µM and 2720 µM | 1590 µM and 293 µM | 3380 µM and > 3070 µM | 6030 µM and > 4760 µM | > 10000 | 1560 | 2900 | 1460 µM and 1440 µM | 2820 µM and 2960 µM | 2080 µM and 2100 µM | 4800 µM and 4380 µM | 2420 µM and 2940 µM | 4800 µM and 6210 µM |  | 
COC(=O)[C@H]1CCCN1C(=O)[C@H]1CCCN1C(=O)[C@@H](Cc1c[nH]c2ccccc12)NC(=S)Nc1cc(C(F)(F)F)cc(C(F)(F)F)c1 | 1.67 µM | 5.65 | 2.16 µM | 6.31 µM | 1.73 µM | 3.51 µM | 3.01 µM | 10.1 | 1.69 | 3.41 | 1.68 µM | 3.09 µM | 3.27 µM | 16.4 µM | 2.01 µM | 3.83 µM |  | 
O=S(=O)(/C=C/C(=C/c1ccccc1)S(=O)(=O)c1ccccc1)c1ccccc1 |  |  |  | 3.22 µM |  | 2.85 µM |  | 2.79 |  | 3.13 |  |  |  |  |  | 3.5 µM |  | 3.19
COc1ccc(CCC2c3cc(OC)c(OC)cc3CCN2C)cc1OC (centres undefined) |  |  |  | > 100 µM |  | > 100 µM |  | > 100 |  | > 100 |  |  |  |  |  | > 100 µM | > 100 | > 100
C#CCNC(=O)[C@H](CC)[C@H]1CC[C@H](C)[C@H]([C@@H](C)[C@H](O)[C@H](C)C(=O)[C@H](CC)C2O[C@]3(C=CC(=O)[C@]4(CC[C@@](C)([C@H]5CC[C@](O)(CC)[C@H](C)O5)O4)O3)[C@H](C)C[C@@H]2C)O1 (some centres undefined) | 2.19 µM | 6.07 | 2.01 µM | 7.81 µM | 1.87 µM | 5.39 µM | 3.42 µM | > 100 | 1.86 | 3.98 | 1.92 µM | 5.14 µM | 2.36 µM | 9 µM | 1.99 µM | 4.91 µM |  | 
COC1=C(OC)C(=O)C(SC/C=C(\C)CCCC(C)CCCC(C)CCCC(C)C)=CC1=O (centres undefined) | 1.57 µM | 6.05 | 1.24 µM | > 27.2 µM | 0.635 µM | > 38.1 µM | 2.47 µM | > 91.6 | 0.857 | > 100 | 1.92 µM | 8.78 µM | 0.478 µM | 12.1 µM | 3.05 µM | > 100 µM |  | 
Nc1nc(Nc2ccccc2SSc2ccccc2Nc2nc(N)nc(C(Cl)(Cl)Cl)n2)nc(C(Cl)(Cl)Cl)n1 | 24.3 µM | 88.8 | 1.56 µM | 3 µM | 2.6 µM | 10.3 µM | 26.4 µM | 91.3 | 10.4 | 33.8 | 3.13 µM | 10.7 µM | 2.79 µM | 39.2 µM | 2.07 µM | 6.33 µM |  | 

Reference: PubChem BioAssay (NCI)
